This is an account of results in patent publication US20080279800A1, “AROMACHEMICALS” (Flexitral, Inc., priority 2007, published 2008).

The data set can be described thus: Toxicology tests, oral LD50. Particulars: rat, in vivo, rats.

For the compound `CC(C(C)C(C)(C)C)C(C)C1(C)CO1` (stereo not shown) [2-methyl-2-(1,2,3,4,4-pentamethylpentyl)oxirane], the LD50 (as a rule, the dose at which mortality reaches 50%) was above 2000 mg/kg.
